“Also recorded” adds a separate entry of the source.
Legend:
tubulin / microtubules = test: Tubulin polymerization-depolymerization (CaCl2-induced depolymerization of microtubules); type: biochemical; conditions: 10^-6 M; 1.0 mg/mL tubulin; CaCl2 0.25 mM after 16 minutes; 37° C.; initial, no prior release
Procedure: Tubulin polymerization to microtubules is promoted by GTP, whereas CaCl2 causes depolymerization of microtubules back to tubulin (FIG. 3A). […] The designed protaxol 5 was tested for its ability to stabilize microtubules formed from tubulin via the action of GTP. […] These findings are in agreement with the previously reported loss of activity resulting from blocking the C-2' hydroxyl group.
Tubulin polynerization-depolymerization experiments with taxol and designed protaxol 5 are illustrated in FIG. 3. CaCl2 -promoted depolymerization of microtubules was suppressed by taxol and protaxol 5 (after taxol release).
These measurements may be conducted at 37° C. following a recently developed procedure described by R. Merlock and W. Wrasidlo (Analytical Biochemistry, 1993). In each case 1.0 mM GTP may be employed to promote initial polymerization of tubulin.
D: Tubulin (1.0 mg/mL) with protaxol 5 (10^-6 M) after release of taxol (as determined by HPLC, essentially quantitative conversion).

[1] = test system: PC-3 (prostate carcinoma); test: Cytotoxicity (sulphorhodamine B), cancer cell line, Table 1B; type: cell-based; conditions: Homo sapiens, 72 h
HT-29 (colon carcinoma) = test: as above; type: cell-based; conditions: Homo sapiens, HT-29, 72 h
[2] = test system: RPMI-7666 (normal human PBLs); test: Cytotoxicity (sulphorhodamine B), normal cell line, Table 1B; type: cell-based; conditions: 72 h
[3] = test system: broad spectrum of cell lines; test: Cytotoxicity against a broad spectrum of cell lines (overall); conditions: Table 1B
Procedure: The protaxols synthesized in this study were tested against a broad spectrum of cell lines ranging from the multiple-drug resistant ovarian (OVCAR-3) to lung (H-322) and leukemia (MOLT-4) cells in order to assess cytotoxicity, cell-type selectivity, and duration of action.
The cytotoxicities were determined using the sulphorhodamine B assay method (Skehan, P. et al. J. Nat. Canc. Inst. 82, 1107 (1990)).

NHDF (normal human skin) = test: Cytotoxicity (sulphorhodamine B), normal cell line, Table 1B; type: cell-based; conditions: 72 h
SK (melanoma) = test: Cytotoxicity (sulphorhodamine B), cancer cell line, Table 1B; type: cell-based; conditions: 72 h
[4] = test system: MOLT-4 (T-cell leukaemia); test: as above; type: cell-based; conditions: Homo sapiens, MOLT-4, 72 h
L1210 (mouse leukaemia) = test: as above; type: cell-based; conditions: L1210, 72 h
Capan-1 (pancreatic) = test: as above; type: cell-based; conditions: Homo sapiens, CAPAN-1, 72 h
[5] = cited from earlier work
[6] = test system: OVCAR-3 (ovarian carcinoma); test: Cytotoxicity (sulphorhodamine B), cancer cell line, Table 1B; type: cell-based; conditions: Homo sapiens, OVCAR-3, 72 h
MCF-7 (breast carcinoma) [7] = test: as above; type: cell-based; conditions: Homo sapiens, MCF7, 72 h
SIHA (cervix carcinoma) = test: as above; type: cell-based; conditions: Homo sapiens, SiHa, 72 h
[8] = test system: UCLA-P-3 (lung carcinoma); test: as above; type: cell-based; conditions: Homo sapiens, UCLA P-3, 72 h
[9] = test system: HLF-1 (normal human diploid lung); test: Cytotoxicity, Example 8; type: cell-based; conditions: HLF1, 72 h
Procedure: (§1) Tumor or normal cells were cultured in 96-well plates with the test compound in 200 μl of RPMI supplemented with 10% fetal bovine serum (Hyclone, Salt Lake City, Utah) at 37° C. in a humidified atmosphere containing 5% CO2 in air for 72 hours. Sulforhodamine B dissolved in 1% acetic acid was added, and the plates were incubated for 30 minutes at ambient temperature, washed with 1% acetic acid, and blotted. To the air-dried plates were added 100 μl of […] unbuffered TRIS base (pH 10.5) with shaking. The optical densities of the plates were measured with a microplate reader (Molecular Devices Thermomax) at 540 nm. The concentration of compound required to reduce the absorbance to 50% of control samples was recorded as IC50.
(§2) NHDF: Normal human dermal fibroblast (available from Clouelics Corp., San Diego, Calif.); HLF-1: Normal human diploid lung; W1-38; Normal human diploid lung; CHO; Chinese hamster ovary; SK-MEL-28: Melanoma; CAPAN-1: Pancreatic carcinoma; H322: lung carcinoma; MCF-7; Breast carcinoma; BT-549; Human breast ductal carcinoma; OVCAR-3: Human ovarian carcinoma; HT-29: Human adenocarcinoma, colon; SIHA: Human squamous carcinoma crvx; 786-0: Human perirenal cell adenocarci; PC-3: Human prostate adenocarcinoma; HL-60: Human promyelomic leukemia; MOLT-4: Human T-cell leukemia. All cell lines except NHDF are available from the American Tissue Culture Collection, Rockville, Md.

H322 (lung carcinoma) [10] = test: Cytotoxicity, Example 8; type: cell-based; conditions: NCI-H322, 72 h
Procedure: as §1, §2

[11] = test system: OVCAR-3 (human ovarian carcinoma); test: Cytotoxicity, Example 8; type: cell-based; conditions: OVCAR-3, 72 h
Procedure: as §1, §2

SK-MEL-28 (melanoma) = test: Cytotoxicity, Example 8; type: cell-based; conditions: Homo sapiens, SK-MEL-28, 72 h
Procedure: as §1, §2

[12] = test system: S1HA (human squamous carcinoma crvx); test: Cytotoxicity, Example 8; type: cell-based; conditions: 72 h
Procedure: as §1, §2

[13] = test system: PC-3 (human prostate adenocarcinoma); test: Cytotoxicity, Example 8; type: cell-based; conditions: 72 h
Procedure: as §1, §2

[14] = test system: CAPAN-1 (pancreatic carcinoma); test: Cytotoxicity, Example 8; type: cell-based; conditions: Homo sapiens, CAPAN-1, 72 h
Procedure: as §1, §2

[15] = test system: NHDF (normal human dermal fibroblast); test: Cytotoxicity, Example 8; type: cell-based; conditions: 72 h
Procedure: as §1, §2

MCF-7 (breast carcinoma) [16] = test: Cytotoxicity, Example 8; type: cell-based; conditions: Homo sapiens, MCF7, 72 h
Procedure: as §1, §2

[17] = test system: 786-0 (human perirenal cell adenocarci); test: Cytotoxicity, Example 8; type: cell-based; conditions: 786-0, 72 h
Procedure: as §1, §2

[18] = test system: CHO (Chinese hamster ovary); test: Cytotoxicity, Example 8; type: cell-based; conditions: Cricetulus griseus, 72 h
Procedure: as §1, §2

[19] = test system: BT-549 (human breast ductal carcinoma); test: Cytotoxicity, Example 8; type: cell-based; conditions: BT-549, 72 h
Procedure: as §1, §2

[20] = test system: HT-29 (human adenocarcinoma, colon); test: Cytotoxicity, Example 8; type: cell-based; conditions: HT-29, 72 h
Procedure: as §1, §2

[21] = test system: W1-38 (normal human diploid lung); test: Cytotoxicity, Example 8; type: cell-based; conditions: W138, 72 h
Procedure: as §1, §2

H322 (lung carcinoma) [22] = test: Cytotoxicity (sulphorhodamine B), cancer cell line, Table 1B; type: cell-based; conditions: NCI-H322, 72 h
physchem = test: physchem
Procedure: The solubilities of the synthesized protaxols in D2 O were determined by 1H NMR spectroscopy.
The resulting mixture was centrifuged for 20 minutes and the supernatant saturated solution was analysed by ^1 H NMR spectroscopy using a Bruker AMX-400 instrument and methanol or pyridine as internal standard. The concentration of the compound was determined by comparing several signals with the CH3 signal of methanol or the NCH signal of pyridine.

[23] = test system: CHO (Chinese hamster ovary); test: Cytotoxicity (sulphorhodamine B), normal cell line, Table 1B; type: cell-based; conditions: Cricetulus griseus, 72 h
[24] = test system: 786-0 (renal cell carcinoma); test: Cytotoxicity (sulphorhodamine B), cancer cell line, Table 1B; type: cell-based; conditions: Homo sapiens, 786-0, 72 h
[25] = test system: CHO (normal human mammary); test: Cytotoxicity (sulphorhodamine B), normal cell line, Table 1B; type: cell-based; conditions: Homo sapiens, 72 h
[26] = test system: BT-549 (breast carcinoma); test: Cytotoxicity (sulphorhodamine B), cancer cell line, Table 1B; type: cell-based; conditions: Homo sapiens, BT-549, 72 h
[27] = test system: HL-60 (promyel carcinoma); test: as above; type: cell-based; conditions: Homo sapiens, HL-60, 72 h
[28] = test system: BALB/c 3T3 (normal mouse embryo); test: Cytotoxicity (sulphorhodamine B), normal cell line, Table 1B; type: cell-based; conditions: BALB/c3T3, 72 h

In the case of `CC(=O)O[C@H]1C(=O)[C@@]2(C)[C@H]([C@H](OC(=O)c3ccccc3)[C@]3(O)C[C@H](OC(=O)[C@H](O)[C@@H](NC(=O)c4ccccc4)c4ccccc4)C(C)=C1C3(C)C)[C@]1(OC(C)=O)CO[C@@H]1C[C@@H]2O` [Taxol], the “prevention of CaCl2-induced depolymerization of microtubules” value (tubulin / microtubules) is reported as “stabilizes microtubules against CaCl2-induced depolymerization; also recorded: suppressed; also recorded: did not cause depolymerization”, the IC50 [1] is reported as 1000 nM and the IC50 (HT-29 (colon carcinoma)) is reported as under 1 nM. The IC50 [2] was 100 µM, the “selectivity against cancer cells versus normal cells” value [3] was “rather impressive selectivity” and the IC50 (NHDF (normal human skin)) was 1000 nM. It also gave an IC50 (SK (melanoma)) of 10 µM, an IC50 [4] of under 1 nM and an IC50 (L1210 (mouse leukaemia)) of 1000 nM. For the same compound, the IC50 (Capan-1 (pancreatic)) was under 1 nM, the “water solubility of taxol” value [5] was “only slightly soluble in water; also recorded: essentially insoluble in water” and the IC50 [6] was under 1 nM. For the same compound, the IC50 (MCF-7 (breast carcinoma) [7]) was under 10 µM, the IC50 (SIHA (cervix carcinoma)) was 10 µM and the IC50 [8] was under 1 nM. The IC50 [9] was 63 µM, the IC50 (H322 (lung carcinoma) [10]) was 122 µM and the IC50 [11] was 98 nM. It also gave an IC50 (SK-MEL-28 (melanoma)) of 100 µM, an IC50 [12] of 1.11 mM and an IC50 [13] of 69.1 µM. It also gave an IC50 [14] of 98 nM, an IC50 [15] of 208 µM and an IC50 (MCF-7 (breast carcinoma) [16]) of 64.4 µM. It also gave an IC50 [17] of 184 nM, an IC50 [18] of 53.5 µM and an IC50 [19] of 44.6 µM. The IC50 [20] was 98 nM, the IC50 [21] was 60.6 µM and the IC50 (H322 (lung carcinoma) [22]) was 1 nM. The Water solubility (physchem) was under 0.10 mg/mL, the IC50 [23] was 100 µM and the IC50 [24] was 100 nM. The IC50 [25] was 100 µM, the IC50 [26] was 1 nM and the IC50 [27] was under 1 nM. The IC50 [28] was 1000 nM.

— patent publication US5817840A, “Water soluble taxol derivatives” (The Scripps Research Institute, priority 1997, dated 1998)
